Data from publication PMC9143880, “Improving Antimicrobial Activity and Physico-Chemical Properties by Isosteric Replacement of 2-Aminothiazole with 2-Aminooxazole” (Pharmaceuticals, 2022).
Values after ≈ are worked out from the molar mass of the structure shown. Read-outs that look alike come from different tables or passages of the source.

Columns and labels:
HepG2 cells = experiment: HepG2 cytotoxicity screening (CellTiter 96); format: cell-based, human; details: for IC50: Homo sapiens, HepG2, 24 h, 24 h incubation, CellTiter 96, * above highest tested concentration, ** limited by insolubility in medium; for SI: SI = IC50 (µM) HepG2 / MICH37Ra (µM)
[1] = tested on: Mycobacterium tuberculosis H37Ra ITM-M006710 (ATCC 9431); experiment: Antimycobacterial MIC, microdilution broth / Alamar Blue (resazurin); format: cell-based; details: Mycobacterium tuberculosis
[2] = tested on: M. smegmatis DSM 43465 (ATCC 607); experiment: Antimycobacterial MIC, microdilution broth / resazurin; format: cell-based; details: Mycolicibacterium smegmatis; resazurin after 48 h; read-out: MIC M. smegmatis
[3] = tested on: M. aurum DSM 43999 (ATCC 23366); experiment: as above; format: cell-based; details: Mycolicibacterium aurum, read-out: MIC M. aurum
[4] = Kinetic water solubility (water-induced precipitation of DMSO stock, UHPLC); format: physicochemical; details: for solubility: water (DMSO stock diluted with water), 18 °C, kinetic from dmso stock
Description: A low value of log P is often presumed to be related to increased water solubility, although this might not always be the case since log P is a measure of relative solubility of the compound in the lipophilic and hydrophilic solvents (at equilibrium). Therefore, to be sure, we tested whether the lowered log k’w (related to log P) of the oxazole derivatives would also translate to increased solubility in water in a few representative derivatives. The water solubility of selected compounds was assessed by the kinetic method based on water-induced precipitation of DMSO stock solutions of tested compounds due to reasons described by Azzali and colleagues.
Water solubility was investigated using the kinetic solubility method. The sample (1 mg) was dissolved in the smallest amount of DMSO needed, 25 or 50 μL for subtype I and subtype II compounds, respectively. The samples were mixed at 18 °C in a thermomixer (Thermomixer comfort, Eppendorf, Hamburg, Germany) for 1 h. After mixing, the samples were diluted with water to a concentration of 500 μM, and the precipitate was observed. The sample was filtered through a 0.22 μm filter and diluted to be evaluated by UHPLC. The log S parameter was calculated from the experimental solubility in molar concentration. The samples were measured using the same instrument, software, and column as used in the purity evaluation.

[5] = tested on: Staphylococcus aureus subsp. aureus CCM 4223 (ATCC 29213); experiment: Antibacterial microdilution broth (EUCAST); format: cell-based; details: Staphylococcus aureus; 24h incubation; read-out: MIC SA
[6] = tested on: Staphylococcus aureus subsp. aureus (MRSA) CCM 4750 (ATCC 43300); experiment: Antibacterial microdilution broth (EUCAST); format: cell-based; details: Staphylococcus aureus; 24h incubation; read-out: MIC MRSA
[7] = tested on: Staphylococcus epidermidis CCM 4418 (ATCC 12228); experiment: Antibacterial microdilution broth (EUCAST); format: cell-based; details: Staphylococcus epidermidis; 24h incubation; read-out: MIC SE
[8] = tested on: Enterococcus faecalis CCM 4224 (ATCC 29212); experiment: Antibacterial microdilution broth (EUCAST); format: cell-based; details: Enterococcus faecalis; 24h incubation; read-out: MIC EF
[9] = tested on: Escherichia coli CCM 3954 (ATCC 25922); experiment: Antibacterial microdilution broth (EUCAST); format: cell-based; details: Escherichia coli; 24h incubation; read-out: MIC EC
[10] = tested on: Acinetobacter baumannii DSM 30007 (ATCC 19606); experiment: Antibacterial microdilution broth (EUCAST); format: cell-based; details: Acinetobacter baumannii; 24h incubation; read-out: MIC AB
[11] = tested on: Pseudomonas aeruginosa CCM 3955 (ATCC 27853); experiment: Antibacterial microdilution broth (EUCAST); format: cell-based; details: Pseudomonas aeruginosa; 72h incubation; read-out: MIC PA
[12] = tested on: Candida albicans CCM 8320 (ATCC 24433); experiment: Antifungal microdilution broth (EUCAST); details: Candida albicans, 24 h, read-out: MIC CA
[13] = tested on: Candida krusei CCM 8271 (ATCC 6258); experiment: Antifungal microdilution broth (EUCAST); details: Pichia kudriavzevii, 24 h, read-out: MIC CK
[14] = tested on: Candida parapsilosis CCM 8260 (ATCC 22019); experiment: Antifungal microdilution broth (EUCAST); details: Lodderomyces parapsilosis, 24 h, read-out: MIC CP
[15] = tested on: Candida tropicalis CCM 8264 (ATCC 750); experiment: Antifungal microdilution broth (EUCAST); details: Candida tropicalis, 24 h, read-out: MIC CT
[16] = tested on: Aspergillus fumigatus ATCC 204305; experiment: Antifungal microdilution broth (EUCAST); details: Aspergillus fumigatus, ATCC204305, 24 h, read-out: MIC AF
[17] = tested on: Aspergillus flavus CCM 8363; experiment: Antifungal microdilution broth (EUCAST); details: Aspergillus flavus, CCM8363, 24 h, read-out: MIC AFla
[18] = tested on: Lichtheimia corymbifera CCM 8077; experiment: Antifungal microdilution broth (EUCAST); details: Lichtheimia corymbifera, CCM8077, 24 h, read-out: MIC LC
[19] = tested on: Trichophyton interdigitale CCM 8377 (ATCC 9533); experiment: Antifungal microdilution broth (EUCAST); details: Trichophyton interdigitale, 72 h, read-out: MIC TI
[20] = RP-UHPLC lipophilicity parameter log k’w; format: physicochemical; details: for log k’w: RP-UHPLC, acetonitrile/water, log k extrapolated to 0% acetonitrile; for logkw: experimental lipophilicity parameter
Method in brief: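 Retention was measured once per eluent composition: subtype I at 40/45/50% and subtype II at 20/30/40% acetonitrile in water, isocratic RP-UHPLC. log k values from these runs gave the lipophilicity index log k’w.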

[21] = tested on: M. avium DSM 44156 (ATCC 25291); experiment: Antimycobacterial MIC, microdilution broth / resazurin; format: cell-based, Mycobacterium avium; details: Mycobacterium avium; resazurin after 96 h; read-out: MIC M. avium
[22] = tested on: M. kansasii DSM 44162 (ATCC 12478); experiment: as above; format: cell-based; details: Mycobacterium kansasii, read-out: MIC M. kansasii
Mtb laboratory ID IZAK = format: cell-based, Mycobacterium tuberculosis; details: MDR strain IZAK, CLSI breakpoints 2020
Mtb laboratory ID MATI = format: cell-based, Mycobacterium tuberculosis; details: MDR strain MATI, CLSI breakpoints 2021
[23] = 120 h, Middlebrook 7H9, resazurin after 120 h, read-out: Mtb H37Ra MIC
[24] = calculated from experimentally measured water solubility in molar concentration, read-out: Exp. log S (converted)
[25] = water, kinetic method, DMSO stock diluted to 500 μM, read-out: Solubility
[26] = recalculated from µg/mL, read-out: MICH37Ra

| Compound | IC50 (HepG2 cells) [µM] | MIC [1, 23] [µg/mL] | MIC [2] [µg/mL] | MIC ([3]; resazurin after 72 h) [µg/mL] | MIC [5] [µM] | MIC [6] [µM] | MIC [7] [µM] | MIC [8] [µM] | MIC [9] [µM] | MIC [10] [µM] | MIC [11] [µM] | MIC [12] [µM] | MIC [13] [µM] | MIC [14] [µM] | MIC [15] [µM] | MIC [16] [µM] | MIC [17] [µM] | MIC [18] [µM] | MIC [19] [µM] | log k’w [20] | also measured |
| --- | --- | --- | --- | --- | --- | --- | --- | --- | --- | --- | --- | --- | --- | --- | --- | --- | --- | --- | --- | --- | --- |
| O=C(Nc1nccs1)c1cccnc1 [Compound 2a] | > 1000 | 250 | ≥ 500 | 250 (≈ 1220 µM) | > 500 | > 500 | > 500 | > 500 | > 500 | > 500 | > 500 | > 500 | > 500 | > 500 | > 500 | > 500 | > 500 | > 500 | > 500 |  | logS_exp [4]: -1.202 |
| O=C(Nc1ncco1)c1cccnc1 [Compound 2b] | > 1000 | 31.2 | 62.5 (≈ 330 µM) | 15.6 (≈ 82.6 µM) | 250 (≈ 47.3 µg/mL) | 500 (≈ 94.6 µg/mL) | 500 (≈ 94.6 µg/mL) | > 500 | > 500 | > 500 | > 500 | 500 (≈ 94.6 µg/mL) | 500 (≈ 94.6 µg/mL) | 250 (≈ 47.3 µg/mL) | > 500 | > 500 | > 500 | > 500 | 125 (≈ 23.6 µg/mL) | 0.436 | logkw [20]: 0.4358; logS_exp ([4]; experimental log S): -0.9171; melting point: 155 to 160 °C |
| O=C(Nc1nccs1)c1ccnc(Cl)c1 [Compound 6a] | > 250 | ≥ 500 | ≥ 500 | ≥ 500 | > 500 | > 500 | > 500 | > 500 | > 500 | > 500 | > 500 | > 500 | > 500 | > 500 | > 500 | > 500 | > 500 | > 500 | > 500 | 2.013 | logkw [20]: 2.013; MIC [21]: ≥ 500 µg/mL; MIC ([22]; resazurin after 96 h): ≥ 500 µg/mL; solubility [4, 24]: 126 µM; solubility [4, 25]: 29.9 µg/mL; melting point: 152 to 154 °C |
| O=C(Nc1nc(-c2ccccc2)cs1)c1cccnc1 [Compound 12a] | > 25 | ≥ 500 | ≥ 500 | ≥ 500 | > 125 | > 125 | > 125 | > 125 | > 125 | > 125 | > 125 | > 125 | > 125 | > 125 | > 125 | > 125 | > 125 | > 125 | > 125 | 2.131 | logkw [20]: 2.131; MIC [21]: ≥ 500 µg/mL; MIC ([22]; resazurin after 96 h): ≥ 500 µg/mL; logS_exp ([4]; experimental log S): -3.188; solubility [4, 24]: 1 µM; solubility [4, 25]: 0.28 µg/mL |
| O=C(Nc1nc(-c2ccccc2)co1)c1cccnc1 [Compound 12b] | 610 | 125 | 500 (≈ 1880 µM) | 250 (≈ 942 µM) | 500 (≈ 133 µg/mL) | > 500 | 62.5 (≈ 16.6 µg/mL) | > 500 | > 500 | > 500 | > 500 | > 500 | > 500 | > 500 | > 500 | > 500 | > 500 | > 500 | > 500 | 1.118 | logkw [20]: 1.118; logS_exp ([4]; experimental log S): -2.228; solubility [4, 24]: 437 µM; solubility [4, 25]: 116 µg/mL |
| O=C(Nc1nc(-c2ccccc2)cs1)c1ccnc(Cl)c1 [Compound 15a] | 103 | 3.91 | 15.6 (≈ 49.5 µM) | 31.2 (≈ 99 µM) | > 500 | > 500 | > 500 | > 500 | > 500 | > 500 | > 500 | > 125 | > 125 | > 125 | > 125 | > 125 | > 125 | > 125 | > 125 | 3.036 | logkw [20]: 3.036; SI (HepG2 cells): 8.3; MIC [1, 26]: 12.4 µM; MIC [21]: 15.6 µg/mL (≈ 49.5 µM); MIC ([22]; 96 h): < 3.91 µg/mL; solubility [4, 24]: 6.61 µM; solubility [4, 25]: 2.1 µg/mL; melting point: 158 to 162 °C |
| O=C(Nc1nc(-c2ccccc2)co1)c1ccnc(Cl)c1 [Compound 15b] | 136 | 7.81 | 31.2 (≈ 104 µM) |  | 62.5 (≈ 18.7 µg/mL) | 62.5 (≈ 18.7 µg/mL) | 250 (≈ 74.9 µg/mL) | 250 (≈ 74.9 µg/mL) | > 500 | 500 (≈ 150 µg/mL) | > 500 | 500 (≈ 150 µg/mL) | 500 (≈ 150 µg/mL) | 500 (≈ 150 µg/mL) | 500 (≈ 150 µg/mL) | > 500 | > 500 | > 500 | 500 (≈ 150 µg/mL) | 1.992 | logkw [20]: 1.992; SI (HepG2 cells): 5.2; MIC [1, 26]: 26.1 µM; MIC ([3]; 72 h): 7.81 µg/mL (≈ 26.1 µM); MIC [21]: 15.6 µg/mL (≈ 52.1 µM); MIC ([22]; resazurin after 96 h): 15.6 µg/mL (≈ 52.1 µM); solubility [4, 24]: 417 µM; solubility [4, 25]: 124 µg/mL |
| NC(=O)c1cnccn1 [PZA, pyrazinamide] |  |  |  |  |  |  |  |  |  |  |  |  |  |  |  |  |  |  |  |  | Concentration (susceptibility profile) (Mtb laboratory ID IZAK): > 16 µg/mL; Susceptibility (Mtb laboratory ID IZAK): resistant; Concentration (susceptibility profile) (Mtb laboratory ID MATI): > 128 µg/mL; Susceptibility (Mtb laboratory ID MATI): resistant |
| [H]/N=C(/N)N[C@H]1[C@H](O)[C@@H](O)[C@H](O[C@@H]2O[C@@H](C)[C@](O)(C=O)[C@H]2O[C@@H]2O[C@@H](CO)[C@H](O)[C@@H](O)[C@@H]2NC)[C@@H](N/C(N)=N\[H])[C@@H]1O [STM, streptomycin] |  |  |  |  |  |  |  |  |  |  |  |  |  |  |  |  |  |  |  |  | Concentration (susceptibility profile) (Mtb laboratory ID IZAK): 4 µg/mL; Susceptibility (Mtb laboratory ID IZAK): resistant; Concentration (susceptibility profile) (Mtb laboratory ID MATI): > 16 µg/mL; Susceptibility (Mtb laboratory ID MATI): resistant |
